From PMC8878324, “Evaluation of New Antimicrobial Agents Based on tris(1H-Indol-3-yl)methylium Salts: Activity, Toxicity, Suppression of Experimental Sepsis in Mice” (Pharmaceuticals, 2022)
Like-named read-outs stand apart in the source and are kept apart here.

Columns and labels:
[1] = tested on: yeast (Candida albicans) and fungi (Aspergillus niger); assay: Antifungal activity; type: cell-based; settings: for antifungal activity: in words
Protocol: (§1) We have tested the antimicrobial activity in vitro of over 100 tris(indolyl)methane derivatives against 16 strains of Gram-positive, Gram-negative bacteria and fungi including either sensitive or drug-resistant strains from ATCC, as well as resistant clinical isolates from the culture collection of the Laboratory for Control of Hospital Infections (Sechenov University, Moscow, Russia). The minimum inhibitory concentrations (MICs) were determined by the microdilution method in a cation-adjusted Müller–Hinton medium for bacteria and in a liquid culture medium RPMI 1640 with L-glutamine without sodium bicarbonate for fungi in accordance with the requirements of the Institute of Clinical and Laboratory Standards (CLSI/NCCLS). […] As a rule, their activity against Gram-negative bacteria was usually not that high. […] For comparison, the antimicrobial activity of prototype 4 is shown. The antibacterial antibiotic levofloxacin and the antifungal amphotericin B were used as reference drugs (Table 1).
(§2) The minimum inhibitory concentrations (MIC) for Gram-positive and Gram-negative bacteria were determined by two-fold serial microdilution method in a cation-adjusted Müller–Hinton medium for bacteria and in a liquid culture medium RPMI 1640 with L-glutamine without sodium bicarbonate for fungi in accordance with the requirements of the Institute of Clinical and Laboratory Standards (CLSI/NCCLS). The antibacterial antibiotic levofloxacin and the antifungal antibiotic amphotericin B from Sigma-Aldrich were used as reference drugs.

Gram-positive bacteria = assay: MIC against Gram-positive bacteria; type: cell-based
Protocol: as §1, §2

[2] = Cytotoxic activity, MTT assay; type: cell-based, human; settings: human, HPF-hTERT
Protocol: (§3) The cytotoxic activity of the compounds was evaluated on the healthy donor (postnatal) human fibroblasts immortalized by transfection of the hTERT gene of the catalytic component of telomerase (hereinafter HPF-hTERT) that were obtained from N.N. Blokhin Russian Cancer Research Center. HFC-hTERT cells were cultured in Dulbecco’s modified medium (DMEM) containing 2 mM of L-glutamine, 10% fetal calf serum, 100 U/mL of penicillin and 100 μg/mL of streptomycin. Incubation was performed in a humidified atmosphere of 5% CO2 at 37 °C. In the experiment, we used cells in the logarithmic growth phase. To study the cytotoxicity of compounds, 190 μL of cell suspension (~2 thousand cells per well) was added to the wells of 96-well plates and incubated for 16 h. On the day of the experiment, serial dilutions of the test compounds were prepared in DMSO (stock solution—10 mM in 100% DMSO). Further dilutions were conducted in a nutrient medium. The final concentrations of compounds in the experiment were in a concentration range from 0.0025 to 50 μM. The final concentration of DMSO was 1% or less. Each concentration was presented in 3 repetitions. […] The cells were incubated with the test compounds for 72 h. After the end of incubation, 20 μL of MTT solution in growth medium (5 mg/mL) was added to the wells. The cells were incubated for 2 h until a purple color developed, after which the culture medium was removed. DMSO was added to the wells, and the sediment was suspended. Optical density was measured with a Thermo Scientific Multiscan FC spectrophotometer at 570 nm. The values of optical density in wells without addition of test compounds (control) were taken as 100% cell survival. The percentage of survival of cells incubated with the test compounds was calculated by dividing the optical density in the corresponding well (average of 3 independent measurements) by the optical density in the control. The concentration of drugs causing 50% cell death (IC50) was evaluated and expressed in μg/mL.

HPF-hTERT = assay: Cytotoxic activity, MTT assay; type: cell-based, human; settings: 72 h
Protocol: as §3

Row | SMILES | antifungal activity [1] | MIC (Gram-positive bacteria; read-out: MIC) [µg/mL] | IC50 at 72 h [2] [µg/mL] | Cytotoxic Activity IC50 (HPF-hTERT) [µg/mL] | MIC ([1]; Candida albicans and Aspergillus niger) [µg/mL] | MIC (Gram-positive bacteria) [µg/mL]
1 | OCCCCCn1cc([C+](c2cn(CCCCCO)c3ccccc23)c2cn(CCCCCO)c3ccccc23)c2ccccc21.[Cl-] [Compound 1, tris(1-(5-Hydroxypentyl)-1H-indol-3-yl) methylium chloride] | no antifungal activity at all | 2 | 12.6 | 13 |  | 
2 | CCCn1cc([C+](c2cn(CCC)c3ccccc23)c2cn(C3=C(N(C)C)C(=O)NC3=O)c3ccccc23)c2ccccc21 [Compound 3, 1-(4-Dimethylamino-2,5-dioxo-2,5-dihydro-1H-pyrrol-3-yl) -1H-indol-3-yl) bis(1-propyl-1H-indol-3-yl) methylium chloride] |  |  | 0.57 | 0.6 | 2 | 0.13
3 | C[C@H]1COc2c(N3CCN(C)CC3)c(F)cc3c(=O)c(C(=O)O)cn1c23 [Levofloxacin, levofloxacin, reference compound] |  |  | > 50 |  |  | 
4 | CCCn1cc([C+](c2cn(CCC)c3ccccc23)c2cn(C3=C(N)C(=O)NC3=O)c3ccccc23)c2ccccc21.[Cl-] [Compound 2, (1-(4-Amino-2,5-dioxo-2,5-dihydro-1H-pyrrol-3-yl)-1H-indol-3-yl)bis(1-propyl-1H-indol-3-yl) methylium chloride] | low antifungal activity |  | 2.77 | 2.8 |  | 
